# Measurements reported in ChEMBL document CHEMBL1130670, “Potent bicyclic lactam inhibitors of thrombin: Part I: P3 modifications” (Bioorg Med Chem Lett, 1998).
# Legend:
# Prothrombin = Prothrombin (Homo sapiens, UniProt P00734); assay: Binding affinity against thrombin
# [1] = target: Prothrombin (Rattus norvegicus) (UniProt P18292)
# Description: Compound was tested for the antithrombic effect in rat arterial thrombosis model and expressed as activated partial thromboplastin time(PTT)
# [2] = target: Prothrombin (Rattus norvegicus) (UniProt P18292); remark: listed apart in the source
# Description: Compound was tested for the antithrombic effect in rat arterial thrombosis model and expressed as mean occlusion time(MOT)
# [3] = target: Prothrombin (Rattus norvegicus) (UniProt P18292); remark: listed apart in the source
# Description: Compound was tested for the antithrombic effect in rat arterial thrombosis model and expressed as thrombin time(TT)
# Throughout, for APTT: test concentration or dose not given here.
# Throughout, for TT: test concentration or dose not given here.
compound,measurement,setting,value
NC(N)=NCCCC(NC(=O)[C@@H]1CC[C@H]2CN(C(=O)[C@@H](N)Cc3ccc(F)cc3)CC(=O)N21)C(=O)c1nccs1 (some centres undefined),Ki,Prothrombin,3 nM
same,APTT,[1],44.2 s
same,MOT,[2],47.7 min
same,TT,[3],557 s
COc1ccc(CCC(=O)N2CC(=O)N3[C@@H](CC[C@H]3C(=O)NC(CCCN=C(N)N)C(=O)c3nccs3)C2)cc1 (some centres undefined),Ki,Prothrombin,0.5 nM
same,APTT,[1],55.2 s
same,MOT,[2],> 60 min
same,TT,[3],633 s
N=C(N)NCCCC(NC(=O)[C@@H]1CC[C@H]2CN(C(=O)CCOc3ccccc3)CC(=O)N21)C(=O)c1nccs1 (some centres undefined),Ki,Prothrombin,5 nM
same,APTT,[1],45.2 s
same,MOT,[2],47.7 min
same,TT,[3],276 s
NC(N)=NCCCC(NC(=O)[C@@H]1CC[C@H]2CN(C(=O)[C@@H](N)Cc3c[nH]c4ccccc34)CC(=O)N21)C(=O)c1nccs1 (stereo in doubt; 34) [listing 1 of 2 here],APTT,[1],188 s
same,MOT,[2],> 60 min
same,TT,[3],929 s
N=C(N)NCCCC(NC(=O)[C@@H]1CC[C@H]2CN(C(=O)CCc3ccccc3C(F)(F)F)CC(=O)N21)C(=O)c1nccs1 (some centres undefined),Ki,Prothrombin,0.5 nM
same,APTT,[1],90 s
same,MOT,[2],> 60 min
same,TT,[3],> 999 s
N=C(N)NCCCC(NC(=O)[C@@H]1CC[C@H]2CN(C(=O)CCc3ccccc3)CC(=O)N21)C(=O)c1nccs1 (some centres undefined),APTT,[1],44.3 s
same,MOT,[2],42.2 min
same,TT,[3],381 s
N=C(N)NCCCC(NC(=O)[C@@H]1CC[C@H]2CN(C(=O)[C@@H](O)c3ccccc3)CC(=O)N21)C(=O)c1nccs1 (stereo in doubt; 29) [listing 1 of 2 here],Ki,Prothrombin,16 nM
NC(N)=NCCCC(NC(=O)[C@@H]1CC[C@H]2CN(C(=O)[C@@H](N)Cc3ccc(O)cc3)CC(=O)N21)C(=O)c1nccs1 (stereo in doubt; 32),APTT,[1],76 s
same,MOT,[2],53 min
same,TT,[3],433 s
N=C(N)NCCCC(NC(=O)[C@@H]1CC[C@H]2CN(C(=O)OCc3ccccc3)CC(=O)N21)C(=O)c1nccs1 (some centres undefined),Ki,Prothrombin,50 nM
N=C(N)NCCCC(NC(=O)[C@@H]1CC[C@H]2CN(C(=O)CCc3cccc4ccccc34)CC(=O)N21)C(=O)c1nccs1 (some centres undefined),Ki,Prothrombin,0.35 nM
same,APTT,[1],217 s
same,MOT,[2],33.2 min
same,TT,[3],> 600 s
N=C(N)NCCCC(NC(=O)[C@@H]1CC[C@H]2CN(CCCc3ccccc3)CC(=O)N21)C(=O)c1nccs1 (some centres undefined),Ki,Prothrombin,17 nM
same,APTT,[1],30.5 s
same,MOT,[2],28.3 min
same,TT,[3],122 s
N=C(N)NCCCC(NC(=O)[C@@H]1CC[C@H]2CN(C(=O)C3Cc4ccccc4CN3)CC(=O)N21)C(=O)c1nccs1 (some centres undefined),Ki,Prothrombin,32 nM
N=C(N)NCCCC(NC(=O)[C@@H]1CC[C@H]2CN(C(=O)CCc3ccccn3)CC(=O)N21)C(=O)c1nccs1 (some centres undefined),Ki,Prothrombin,3 nM
same,APTT,[1],44.2 s
same,MOT,[2],47.6 min
same,TT,[3],557 s
N=C(N)NCCCC(NC(=O)[C@@H]1CC[C@H]2CN(C(=O)c3ccccc3)CC(=O)N21)C(=O)c1nccs1 (some centres undefined),APTT,[1],25.5 s
same,MOT,[2],45.8 min
same,TT,[3],144 s
NC(N)=NCCCC(NC(=O)[C@@H]1CC[C@H]2CN(C(=O)[C@@H](N)Cc3c[nH]c4ccccc34)CC(=O)N21)C(=O)c1nccs1 (stereo in doubt; 33),Ki,Prothrombin,75.3 nM
N=C(N)NCCCC(NC(=O)[C@@H]1CC[C@H]2CN(C(=O)CCC3CCCCC3)CC(=O)N21)C(=O)c1nccs1 (some centres undefined),Ki,Prothrombin,24 nM
same,APTT,[1],52.4 s
same,MOT,[2],25.4 min
same,TT,[3],320 s
N=C(N)NCCCC(NC(=O)[C@@H]1CC[C@H]2CN(C(=O)[C@@H](N)Cc3ccc(O)cc3)CC(=O)N21)C(=O)c1nccs1 (stereo in doubt; 31),Ki,Prothrombin,160 nM
N=C(N)NCCCC(NC(=O)[C@@H]1CC[C@H]2CN(C(=O)[C@@H](O)c3ccccc3)CC(=O)N21)C(=O)c1nccs1 (stereo in doubt; 29) [listing 2 of 2 here],APTT,[1],49.1 s
same,MOT,[2],> 60 min
same,TT,[3],476 s
N=C(N)NCCCC(NC(=O)[C@@H]1CC[C@H]2CN(C(=O)NCc3ccccc3)CC(=O)N21)C(=O)c1nccs1 (some centres undefined),Ki,Prothrombin,58 nM
Cc1ccc(CCC(=O)N2CC(=O)N3[C@@H](CC[C@H]3C(=O)NC(CCCN=C(N)N)C(=O)c3nccs3)C2)cc1 (some centres undefined),Ki,Prothrombin,0.5 nM
same,APTT,[1],88 s
same,MOT,[2],> 60 min
same,TT,[3],> 999 s
N=C(N)NCCCC(NC(=O)[C@@H]1CC[C@H]2CN(C(=O)CCCc3ccccc3)CC(=O)N21)C(=O)c1nccs1 (some centres undefined),Ki,Prothrombin,1.2 nM
same,APTT,[1],120 s
same,MOT,[2],> 60 min
same,TT,[3],494 s
N=C(N)NCCCC(NC(=O)[C@@H]1CC[C@H]2CN(C(=O)[C@@H](O)c3ccccc3)CC(=O)N21)C(=O)c1nccs1 (stereo in doubt; 28),Ki,Prothrombin,84 nM
N=C(N)NCCCC(NC(=O)[C@@H]1CC[C@H]2CN(C(=O)[C@@H](O)Cc3ccccc3)CC(=O)N21)C(=O)c1nccs1 (some centres undefined),Ki,Prothrombin,4.4 nM
same,APTT,[1],463 s
same,MOT,[2],> 60 min
same,TT,[3],679 s
N=C(N)NCCCC(NC(=O)[C@@H]1CC[C@H]2CN(C(=O)CCc3ccc4ccccc4c3)CC(=O)N21)C(=O)c1nccs1 (some centres undefined),Ki,Prothrombin,0.5 nM
NC(N)=NCCCC(NC(=O)[C@@H]1CC[C@H]2CN(C(=O)[C@@H](N)Cc3c[nH]c4ccccc34)CC(=O)N21)C(=O)c1nccs1 (stereo in doubt; 34) [listing 2 of 2 here],Ki,Prothrombin,0.96 nM
N=C(N)NCCCC(NC(=O)[C@@H]1CC[C@H]2CN(C(=O)CCc3ccccc3F)CC(=O)N21)C(=O)c1nccs1 (some centres undefined),Ki,Prothrombin,0.92 nM
N=C(N)NCCCC(NC(=O)[C@@H]1CC[C@H]2CN(C(=O)[C@@H](N)Cc3ccc(O)cc3)CC(=O)N21)C(=O)c1nccs1 (stereo in doubt; 32),Ki,Prothrombin,18 nM
N=C(N)NCCCC(NC(=O)[C@@H]1CC[C@H]2CN(C(=O)Cc3ccccc3)CC(=O)N21)C(=O)c1nccs1 (some centres undefined),Ki,Prothrombin,2.5 nM
same,APTT,[1],79.2 s
same,MOT,[2],> 60 min
same,TT,[3],387 s
N=C(N)NCCCC(NC(=O)[C@@H]1CC[C@H]2CN(C(=O)COc3ccccc3)CC(=O)N21)C(=O)c1nccs1 (some centres undefined),Ki,Prothrombin,16 nM
same,APTT,[1],31.5 s
same,MOT,[2],37.8 min
same,TT,[3],248 s
N=C(N)NCCCC(NC(=O)[C@@H]1CC[C@H]2CN(C(=O)CCc3ccc(Cl)c(Cl)c3)CC(=O)N21)C(=O)c1nccs1 (some centres undefined),Ki,Prothrombin,0.106 nM
